The text below walks through data of patent US10899738B2 (THE REGENTS OF THE UNIVERSITY OF MICHIGAN, priority 2016, dated 2021).

Each structure is given as a SMILES string. Like-named read-outs stand apart in the source and are kept apart here.

In assay [1] the target is menin protein (Homo sapiens (Human), UniProt O00255). The assay can be described thus: biochemical. Type of assay: binding. The note with it: FP competitive binding; menin protein 4 nM, FAM-MM2 probe 2 nM; read-out: Menin Binding Affinity IC50. An outline of the steps: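 Competitive fluorescence polarization assay using FAM-labelled MLL1 peptide probe FAM-MM2 (2 nM final) preincubated with menin (4 nM final) in PBS with 0.02% bovine γ-globulin, 4% DMSO and 0.01% Triton X-100. Compounds were added and incubated 30 min at room temperature. IC50 came from nonlinear regression of competition curves, with Ki also derived.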

The nature of assay [2]: Cell growth inhibition, CellTiter-Glo Luminescent Cell Viability Assay. Type of assay: cell-based. How it is done:
Cell growth inhibitory activity of representative menin inhibitors was determined using CellTiter-Glo® Luminescent Cell Viability Assay. Cells were seeded in 384-well white opaque cell culture plates at a density of 2,000 cells/well with serially diluted compounds and incubated at 37° C. in an atmosphere of 95% air and 5% CO2 for 4 days. Cell viability was determined using the CellTiter-Glo® Luminescent Cell Viability Assay Kit (Promega, Madison, Wis.) according to the manufacture's instruction. Briefly, a volume of CellTiter-Glo® Reagent equal to the volume of cell culture medium was added to each well, and then the plates were incubated at room temperature for 10-20 minutes. The luminescent signal was measured using a Tecan Infinite M1000 multimode microplate reader (Tecan, Morrisville, N.C.). The half maximal inhibitory concentration (IC50) was calculated using the GraphPad Prism 5 software (GraphPad Software, La Jolla, Calif.).

Setting [3] is: MOLM-13, 96 h, MOLM13 cells, 4 days, CellTiter-Glo, read-out: Cell Growth Inhibition IC50 (μM) MOLM13.
[4] abbreviates: MV4-11, 96 h, MV4, 11 cells, 4 days, CellTiter-Glo, read-out: Cell Growth Inhibition IC50 (μM) MV4, 11.
Setting [5] is: MOLM-13, 96 h, read-out: Cell Growth Inhibition IC50 (μM) MOLM13, MOLM13 cells, 4 days, CellTiter-Glo.
Setting [6] is: MV4-11, 96 h, read-out: Cell Growth Inhibition IC50 (μM) MV4, 11, MV4, 11 cells, 4 days, CellTiter-Glo.

Chain of menin protein (O00255 whole entry): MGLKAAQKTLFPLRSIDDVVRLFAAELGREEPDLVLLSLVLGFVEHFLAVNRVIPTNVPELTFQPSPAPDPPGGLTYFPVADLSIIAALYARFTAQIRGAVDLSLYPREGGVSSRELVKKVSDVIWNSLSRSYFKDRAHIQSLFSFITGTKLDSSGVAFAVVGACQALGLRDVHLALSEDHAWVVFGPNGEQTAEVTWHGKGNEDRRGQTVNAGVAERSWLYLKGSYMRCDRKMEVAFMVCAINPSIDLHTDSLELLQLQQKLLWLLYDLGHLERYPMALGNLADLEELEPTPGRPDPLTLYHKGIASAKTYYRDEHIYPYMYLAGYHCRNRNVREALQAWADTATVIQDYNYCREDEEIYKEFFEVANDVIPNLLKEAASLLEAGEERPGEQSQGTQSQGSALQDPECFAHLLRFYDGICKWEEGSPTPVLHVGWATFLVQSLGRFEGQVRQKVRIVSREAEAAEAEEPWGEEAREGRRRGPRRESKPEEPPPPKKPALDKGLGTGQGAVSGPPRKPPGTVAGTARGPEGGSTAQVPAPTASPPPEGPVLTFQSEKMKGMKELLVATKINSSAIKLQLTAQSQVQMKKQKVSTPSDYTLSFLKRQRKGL

For `CCN1Cc2ccccc2C(C2CCCC2)(C2CCN(CC3CN(c4ccc(S(=O)(=O)C5CC5)cc4Cl)C3)CC2)C1` (stereo not drawn) [compound 144, 4-(1-((1-(2-chloro-4-(cyclopropylsulfonyl)phenyl)azetidin-3-yl)methyl)piperidin-4-yl)-4-cyclopentyl-2-ethyl-1,2,3,4-tetrahydroisoquinoline], the IC50 amounted to 23 nM in assay [1], 4 ± 0.7 µM in assay [2] (setting [3]) and 1.6 ± 1.1 µM in assay [2] (setting [4]).

In the case of `CCN1Cc2ccccc2C(C2CCCC2)(C2CCN(CC3CN(c4ccc(S(=O)(=O)C5CCCC5)cc4)C3)CC2)C1` (stereo not drawn) [compound 142, 4-cyclopentyl-4-(1-((1-(4-(cyclopentylsulfonyl)phenyl)azetidin-3-yl)methyl)piperidin-4-yl)-2-ethyl-1,2,3,4-tetrahydroisoquinoline], the IC50 in assay [1] is 8 nM; in assay [2] (setting [3]) it was 3.2 ± 0.3 µM; in assay [2] (setting [4]), 0.979 ± 0.335 µM.

Consider `CCN1Cc2ccccc2C(C2CCN(CC3CN(c4ccc(S(=O)(=O)c5cnn(C)c5)cc4)C3)CC2)([C@H]2CCC[C@@H]2NC(=O)NC)C1` (mixture of isomers) [Cpd. No. 291, rac-1-((1S,2R)-2-(2-ethyl-4-(1-((1-(4-((1-methyl-1H-pyrazol-4-yl)sulfonyl)phenyl)azetidin-3-yl)methyl)piperidin-4-yl)-1,2,3,4-tetrahydroisoquinolin-4-yl)cyclopentyl)-3-methylurea], for which the IC50 was 7 nM in assay [1], 0.71 µM in assay [2] (setting [5]) and 0.2 µM in assay [2] (setting [6]).

For the molecule `O=S(=O)(c1ccccc1)c1ccc(N2CC(CN3CCC(C(CN4CCCC4)(c4ccccc4)[C@H]4C=CCC4)CC3)C2)cc1` (stereo partly drawn) [compound 356, 4-(1-((R)-cyclopent-2-en-1-yl)-1-phenyl-2-(pyrrolidin-1-yl)ethyl)-1-((1-(4-(phenylsulfonyl)phenyl)azetidin-3-yl)methyl)piperidine], the IC50 in assay [1] is 22 nM; in assay [2] (setting [3]) it was 0.69 µM; in assay [2] (setting [4]), 0.71 µM.

Turning to `CC(=O)O[C@H]1CCC[C@@H]1C1(C2CCN(CC3CN(c4ccc(S(=O)(=O)C5CC5)cc4)C3)CC2)CN(C)Cc2ccccc21` (mixture of isomers) [compound 203, rac-(1S,2R)-2-(4-(1-((1-(4-(cyclopropylsulfonyl)phenyl)azetidin-3-yl)methyl)piperidin-4-yl)-2-methyl-1,2,3,4-tetrahydroisoquinolin-4-yl)cyclopentyl acetate], the values for the IC50 in assay [1], in assay [2] (setting [5]) and in assay [2] (setting [6]) were 9 nM, 0.687 µM and 0.234 µM, respectively.

On to `CN1Cc2ccccc2C(C2CCCC2)(C2CCN(CC3CN(c4ccc(S(=O)(=O)C5CC5)cc4)C3)CC2)C1` (stereo not drawn) [compound 70, 4-cyclopentyl-4-(1-((1-(4-(cyclopropylsulfonyl)phenyl)azetidin-3-yl)methyl)piperidin-4-yl)-2-methyl-1,2,3,4-tetrahydroisoquinoline], for which the 50% inhibitory concentration (IC50) in assay [1] turned out to be 12 nM; in assay [2] (setting [3]), 3.5 µM; in assay [2] (setting [4]), 2.2 µM.

Turning to `O=S(=O)(CC1CCC1)c1ccc(N2CC(CN3CCC(C4(C5CCCC5)NCCc5ccccc54)CC3)C2)cc1` (stereo not drawn) [compound 86, 1-(1-((1-(4-((cyclobutylmethyl)sulfonyl)phenyl)azetidin-3-yl)methyl)piperidin-4-yl)-1-cyclopentyl-1,2,3,4-tetrahydroisoquinoline], the IC50 in assay [1] was determined as 55 nM; in assay [2] (setting [3]), 1.2 ± 0.5 µM; in assay [2] (setting [4]), 0.864 ± 0.017 µM.

With `CN(C)C(=O)N[C@H]1CCC[C@@H]1C(C#N)(c1ccccc1)C1CCN(CC2CN(c3ccc(S(=O)(=O)c4ccncc4)cc3)C2)CC1` (mixture of isomers) [compound 275, rac-3-((1S,2R)-2-(cyano(phenyl)(1-((1-(4-(pyridin-4-ylsulfonyl)phenyl)azetidin-3-yl)methyl)piperidin-4-yl)methyl)cyclopentyl)-1,1-dimethylurea], the IC50 turned out to be 12 nM in assay [1], 0.41 µM in assay [2] (setting [5]) and 0.45 µM in assay [2] (setting [6]).

`COC(=O)N[C@H]1CCC[C@@H]1C(C#N)(c1ccccc1)C1CCN(CC2CN(c3ccc(S(=O)(=O)c4ccc(F)cc4)cc3)C2)CC1` (mixture of isomers) [compound 394, methyl rac((1S,2R)-2-(cyano(1-((1-(4-((4-fluorophenyl)sulfonyl)phenyl)azetidin-3-yl)methyl)piperidin-4-yl)(phenyl)methyl)cyclopentyl) carbamate]: the IC50 in assay [1] is 15 nM; in assay [2] (setting [5]), 1.94 µM; in assay [2] (setting [6]), 0.43 µM.

`CCS(=O)(=O)c1ccc(N2CC(CN3CCC(C4(C5CCCC5)NCCc5ccccc54)CC3)C2)cc1` (stereo not drawn) [compound 133, 1-cyclopentyl-1-(1-((1-(4-(ethylsulfonyl)phenyl)azetidin-3-yl)methyl)piperidin-4-yl)-1,2,3,4-tetrahydroisoquinoline]: the results for the IC50 in assay [1], in assay [2] (setting [3]) and in assay [2] (setting [4]) were 30 nM, 2.9 ± 0.8 µM and 1.7 ± 1 µM, respectively.

For `CC(=O)N[C@@H]1CCC[C@H]1C1(C2CCN(CC3CN(c4ccc(S(=O)(=O)c5ccncc5)cc4)C3)CC2)CN(C)Cc2ccccc21` (mixture of isomers) [compound 272, rac-N-((1R,2S)-2-(2-methyl-4-(1-((1-(4-(pyridin-4-ylsulfonyl)phenyl)azetidin-3-yl)methyl)piperidin-4-yl)-1,2,3,4-tetrahydroisoquinolin-4-yl)cyclopentyl)acetamide], the figures for the IC50 in assay [1], in assay [2] (setting [5]) and in assay [2] (setting [6]) were 180 nM, 2.97 µM and 4.29 ± 1.45 µM, respectively.

`COC(=O)N[C@H]1CCC[C@@H]1C(C#N)(c1ccccc1)C1CCN(CC2CN(c3ccc(S(=O)(=O)c4ccc(C(N)=O)cc4)cc3)C2)CC1` (mixture of isomers) [compound 399, methyl rac-((1S,2R)-2-((1-((1-(4-((4-carbamoylphenyl)sulfonyl)phenyl)azetidin-3-yl)methyl)piperidin-4-yl)(cyano)(phenyl)methyl)cyclopentyl)carbamate]: the IC50 was 7 nM in assay [1], 1.63 µM in assay [2] (setting [5]) and 0.11 µM in assay [2] (setting [6]).

Turning to `CNC(=O)O[C@H]1CCC[C@@H]1C(Cn1cccc1)(c1ccccc1)C1CCN(CC2CN(c3ccc(S(=O)(=O)c4ccccc4)cc3)C2)CC1` (mixture of isomers) [compound 359, rac-(1S,2R)-2-(1-phenyl-1-(1-((1-(4-(phenylsulfonyl)phenyl)azetidin-3-yl)methyl)piperidin-4-yl)-2-(1H-pyrrol-1-yl)ethyl)cyclopentyl methylcarbamate], the IC50 in assay [1] was found to be 12 nM; in assay [2] (setting [5]), 1.46 µM; in assay [2] (setting [6]) it was 0.43 µM.

Take `CCN1Cc2ccccc2C(C2CCN(CC3CN(c4ccc(S(=O)(=O)c5ccn(C)c5)cc4)C3)CC2)([C@H]2CCC[C@@H]2NC(=O)NC)C1` (mixture of isomers) [compound 375, rac-1-((1S,2R)-2-(2-ethyl-4-(1-((1-(4-((1-methyl-1H-pyrrol-3-yl)sulfonyl)phenyl)azetidin-3-yl)methyl)piperidin-4-yl)-1,2,3,4-tetrahydroisoquinolin-4-yl)cyclopentyl)-3-methylurea]: the IC50 in assay [1] was found to be 11 nM; in assay [2] (setting [5]), 1.73 µM; in assay [2] (setting [6]), 0.39 µM.

As for `CCN1Cc2ccccc2C(C2CCCC2)(C2CCN(CC3CN(c4ccc(C#N)cc4)C3)CC2)C1` (stereo not drawn) [compound 46, 4-(3-((4-(4-cyclopentyl-2-ethyl-1,2,3,4-tetrahydroisoquinolin-4-yl)piperidin-1-yl)methyl)azetidin-1-yl)benzonitrile], the IC50 came out at 23 nM in assay [1], 5.1 ± 0.2 µM in assay [2] (setting [3]) and 0.972 ± 0.558 µM in assay [2] (setting [4]).

In the case of `CNC(=O)N[C@H]1CCC[C@@H]1C1(C2CCN(CC3CN(c4ccc(S(=O)(=O)C5CC5)cc4)C3)CC2)CNCc2ccccc21` (mixture of isomers) [compound 285, rac-1-((1S,2R)-2-(4-(1-((1-(4-(cyclopropylsulfonyl)phenyl)azetidin-3-yl)methyl)piperidin-4-yl)-1,2,3,4-tetrahydroisoquinolin-4-yl)cyclopentyl)-3-methylurea], the values for the IC50 in assay [1], in assay [2] (setting [5]) and in assay [2] (setting [6]) were 9 nM, 12.4 µM and 2.48 µM, respectively.

Take `CN1Cc2ccccc2C(C2CCN(CC3CN(c4ccc(S(=O)(=O)c5ccncc5)cc4)C3)CC2)([C@H]2CCC[C@@H]2OC(N)=O)C1` (mixture of isomers) [compound 219, rac-(1S,2R)-2-(2-methyl-4-(1-((1-(4-(pyridin-4-ylsulfonyl)phenyl)azetidin-3-yl)methyl)piperidin-4-yl)-1,2,3,4-tetrahydroisoquinolin-4-yl)cyclopentyl carbamate]: the IC50 in assay [1] came out at 3 nM; in assay [2] (setting [5]) it was 0.236 µM; in assay [2] (setting [6]) it was 0.074 ± 0.011 µM.

For the molecule `O=S(=O)(c1ccc(N2CC(CN3CCC(C4(C5CCCC5)NCCc5ccccc54)CC3)C2)cc1)C1CCC1` (stereo not drawn) [compound 85, 1-(1-((1-(4-(cyclobutylsulfonyl)phenyl)azetidin-3-yl)methyl)piperidin-4-yl)-1-cyclopentyl-1,2,3,4-tetrahydroisoquinoline], the IC50 in assay [1] was determined as 36 nM; in assay [2] (setting [3]) it was 4.2 µM; in assay [2] (setting [4]), 1.6 µM.

Broadly, the IC50 is the concentration that gives 50% inhibition.
